Where two headings read alike, the source gives them in different places.
How the values were obtained:
canine TRPM8 = canine TRPM8 (Canis lupus familiaris, UniProt Q1A7N1); test: In Vitro Canine TRPM8 Functional Assay (Ca2+ fluorescence, icilin activation); format: cell-based; conditions: for IC50: read-out: IC50; for inhibition at 0.2 µM: read-out: % Inh @ 0.2
In short: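 Eight-point dose-response curves in quadruplicate gave EC50 or IC50 values from a Ca2+-sensitive dye assay in HEK293 cells stably carrying canine TRPM8. Icilin, dosed near its 80% maximal level, followed a 5 min compound exposure.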

Male Sprague Dawley rats = test: Chronic Constriction Injury (CCI)-Induced Model of Neuropathic Pain, Acetone-Induced Hypersensitivity; format: in vivo, rat; conditions: Rattus norvegicus, po, Na salt form; for inhibition in vivo at 30 mg/kg: 30 mg/kg p.o.; for inhibition in vivo at 10 mg/kg: 10 mg/kg p.o.
Text: Male Sprague Dawley rats (225-450 g; n=5-8/treatment) were used to evaluate the ability of selected compounds of the formula (I) to reverse CCI-induced cold hypersensitivity. Four loose ligatures of 4-0 chromic gut were surgically placed around the left sciatic nerve under inhalation anesthesia as described by Bennett et al (Bennett G J, Xie Y K. Pain 1988, 33(1): 87-107). Fourteen to 35 days following CCI surgery, subjects were placed in elevated observation chambers containing wire mesh floors and five applications of acetone (0.05 mL/application separated by approximately 5 minutes) were spritzed onto the plantar surface of the paw using a multidose syringe. An abrupt withdrawal or lifting of the paw was considered a positive response. The number of positive responses was recorded for each rat over the five trials. Following baseline withdrawal determinations, compounds of formula (I) are administered in an appropriate vehicle, such as hydroxypropyl-β-cyclodextrin (HP β CD), methylcellulose, Methocel, 10% Solutol, or H2O, or the like, by the appropriate route, i.p. or p.o. […] Results are presented as a percent inhibition of […], which was calculated for each subject as [1−(test compound withdrawals/pre-test withdrawals)]×100 and then averaged by treatment.

[1] = HEK293 cells stably expressing canine TRPM8, icilin activation, eight-point dose-response
[2] = compound at 0.2 μM, canine TRPM8, icilin activation
[3] = 3 h, Water, pretreatment 3 hr, read-out: Percent Inhibition
[4] = 4 h, Water, pretreatment 4 hr, read-out: Percent Inhibition
[5] = 3 h, HPbCD, pretreatment 3 hr, read-out: Percent Inhibition
[6] = 0.2 μM compound, HEK293 cells stably expressing canine TRPM8, icilin activation
[7] = HEK293 cells stably expressing canine TRPM8, icilin activation, average of two or more determinations
[8] = compound at 0.5 μM, canine TRPM8, icilin activation

Sequence of canine TRPM8 (Q1A7N1 1-1104): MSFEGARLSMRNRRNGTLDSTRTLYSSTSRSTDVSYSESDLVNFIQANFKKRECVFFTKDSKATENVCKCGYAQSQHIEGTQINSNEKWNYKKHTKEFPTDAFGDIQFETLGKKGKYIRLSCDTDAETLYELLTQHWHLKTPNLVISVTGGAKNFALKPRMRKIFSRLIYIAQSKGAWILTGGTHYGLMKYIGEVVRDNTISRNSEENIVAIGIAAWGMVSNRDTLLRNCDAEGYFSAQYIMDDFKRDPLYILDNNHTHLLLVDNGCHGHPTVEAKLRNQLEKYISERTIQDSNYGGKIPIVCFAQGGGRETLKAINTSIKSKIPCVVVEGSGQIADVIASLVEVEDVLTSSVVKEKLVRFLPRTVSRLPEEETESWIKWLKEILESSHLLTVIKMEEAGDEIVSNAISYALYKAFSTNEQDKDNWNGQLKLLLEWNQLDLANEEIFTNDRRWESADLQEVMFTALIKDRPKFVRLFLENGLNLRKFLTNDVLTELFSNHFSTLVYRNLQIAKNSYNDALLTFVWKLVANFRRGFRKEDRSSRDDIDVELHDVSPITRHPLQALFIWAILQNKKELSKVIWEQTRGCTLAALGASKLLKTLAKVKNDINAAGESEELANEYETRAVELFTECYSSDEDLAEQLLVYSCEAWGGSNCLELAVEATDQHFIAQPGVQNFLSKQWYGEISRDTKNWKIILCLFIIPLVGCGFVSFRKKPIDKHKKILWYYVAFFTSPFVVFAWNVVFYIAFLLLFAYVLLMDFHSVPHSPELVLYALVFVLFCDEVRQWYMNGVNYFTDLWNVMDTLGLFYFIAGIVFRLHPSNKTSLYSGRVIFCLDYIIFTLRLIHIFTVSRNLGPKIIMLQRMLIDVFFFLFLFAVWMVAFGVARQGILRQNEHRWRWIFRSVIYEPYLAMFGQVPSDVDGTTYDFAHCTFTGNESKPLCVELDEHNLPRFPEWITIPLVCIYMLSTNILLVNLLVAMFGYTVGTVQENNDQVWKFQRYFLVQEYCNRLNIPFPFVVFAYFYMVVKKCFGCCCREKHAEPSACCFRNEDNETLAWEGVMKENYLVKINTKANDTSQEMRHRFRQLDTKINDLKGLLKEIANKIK

With `O=C(O)c1ccc(S(=O)(=O)N(Cc2ccc(F)c(C(F)(F)F)c2)c2sc3ccccc3c2Br)cc1` [Compound 292, N-(3-Bromo-benzo[b]thiophen-2-yl)-N-(4-fluoro-3-trifluoromethyl-benzyl)-4-carboxy-benzenesulfonamide] the IC50 (canine TRPM8; [1]) was 0.8 nM, the inhibition at 0.2 µM (canine TRPM8; [2]) was 98% and the inhibition at 0.5 µM (canine TRPM8; compound at 0.5 μM, canine TRPM8, icilin activation, read-out: % Inh @ 0.5) was 100%. The inhibition in vivo at 30 mg/kg (Male Sprague Dawley rats; 2 h, Water, pretreatment 2 hr, read-out: Percent Inhibition) was 60%, the inhibition in vivo at 3 mg/kg (Male Sprague Dawley rats; 3 h, 3 mg/kg p.o., Water, pretreatment 3 hr, read-out: Percent Inhibition) was 7% and the inhibition in vivo at 10 mg/kg (Male Sprague Dawley rats; [3]) was 16%. For the same compound, the inhibition in vivo at 30 mg/kg (Male Sprague Dawley rats; [3]) was 21%, the inhibition in vivo at 100 mg/kg (Male Sprague Dawley rats; 3 h, 100 mg/kg p.o., Water, pretreatment 3 hr, read-out: Percent Inhibition) was 67% and the ED50 (Male Sprague Dawley rats; Water, pretreatment 3 hr) was 70 mg/kg.
In the case of `O=C(O)c1ccc(S(=O)(=O)N(CCC2CC2)c2sc3ccccc3c2Br)cc1` [Compound 396, N-(3-Bromo-benzo[b]thiophen-2-yl)-N-(2-cyclopropylethyl)-4-carboxy-benzenesulfonamide], the IC50 (canine TRPM8; [1]) is reported as 5 nM, the inhibition at 0.2 µM (canine TRPM8; [2]) is reported as 101% and the inhibition in vivo at 30 mg/kg (Male Sprague Dawley rats; [4]) is reported as 50%.
`Cc1c(N(Cc2ccc(F)cc2)S(=O)(=O)c2ccc(C(=O)O)cc2)sc2ccccc12` [Compound 487, N-(3-Methyl-benzo[b]thiophen-2-yl)-N-(4-fluoro-benzyl)-4-carboxy-benzenesulfonamide] gave an IC50 (canine TRPM8; [1]) of 2 nM, an inhibition at 0.2 µM (canine TRPM8; [2]) of 101% and an inhibition in vivo at 10 mg/kg (Male Sprague Dawley rats; [5]) of 43%. It also gave an inhibition in vivo at 30 mg/kg (Male Sprague Dawley rats; [5]) of 66%.
Work on `Cc1c(N(Cc2ccc(F)c(F)c2)S(=O)(=O)c2ccc(C(=O)O)cc2)sc2ccccc12` [Compound 488, N-(3-Methyl-benzo[b]thiophen-2-yl)-N-(3,4-difluoro-benzyl)-4-carboxy-benzenesulfonamide] yielded an IC50 (canine TRPM8; [1]) of 1 nM, an inhibition at 0.2 µM (canine TRPM8; [2]) of 101% and an inhibition in vivo at 30 mg/kg (Male Sprague Dawley rats; 2 h, HPbCD, pretreatment 2 hr, read-out: Percent Inhibition) of 43%.
In the case of `Cc1c(N(Cc2ccc(F)c(Cl)c2)S(=O)(=O)c2ccc(C(=O)O)cc2)sc2ccccc12` [Compound 489, N-(3-Methyl-benzo[b]thiophen-2-yl)-N-(4-fluoro-3-chloro-benzyl)-4-carboxy-benzenesulfonamide], the IC50 (canine TRPM8; [1]) is reported as 0.6 nM, the inhibition at 0.2 µM (canine TRPM8; [2]) is reported as 101% and the inhibition in vivo at 30 mg/kg (Male Sprague Dawley rats; [3]) is reported as 86%. The inhibition in vivo at 10 mg/kg (Male Sprague Dawley rats; [4]) was 13%, the inhibition in vivo at 17.8 mg/kg (Male Sprague Dawley rats; 4 h, 17.8 mg/kg p.o., Water, pretreatment 4 hr, read-out: Percent Inhibition) was 60% and the inhibition in vivo at 30 mg/kg (Male Sprague Dawley rats; [4]) was 57%. For the same compound, the inhibition in vivo at 56 mg/kg (Male Sprague Dawley rats; 4 h, 56 mg/kg p.o., Water, pretreatment 4 hr, read-out: Percent Inhibition) was 70% and the ED50 (Male Sprague Dawley rats; Water, pretreatment 4 hr) was 23 mg/kg.
`Cc1c(N(Cc2ccc(OC(F)F)cc2)S(=O)(=O)c2ccc(C(=O)O)cc2)sc2ccccc12` [Compound 490, N-(3-Methyl-benzo[b]thiophen-2-yl)-N-(4-difluoromethoxy-benzyl)-4-carboxy-benzenesulfonamide] was tested, and the IC50 (canine TRPM8; [1]) was 1 nM, the inhibition at 0.2 µM (canine TRPM8; [2]) was 101% and the inhibition in vivo at 30 mg/kg (Male Sprague Dawley rats; 1 h, HPbCD, pretreatment 1 hr, read-out: Percent Inhibition) was 23%.
For `Cc1c(N(Cc2ccc(C(F)(F)F)c(F)c2)S(=O)(=O)c2ccc(C(=O)O)cc2)sc2ccccc12` [Compound 497, N-(3-Methyl-benzo[b]thiophen-2-yl)-N-(3-fluoro-4-trifluoromethyl-benzyl)-4-carboxy-benzenesulfonamide], the IC50 (canine TRPM8; [1]) was 0.4 nM, the inhibition at 0.2 µM (canine TRPM8; [2]) was 101% and the inhibition in vivo at 30 mg/kg (Male Sprague Dawley rats; [4]) was 60%.
For `Cc1c(N(Cc2ccc3c(c2)OC(F)(F)O3)S(=O)(=O)c2ccc(C(=O)O)cc2)sc2ccccc12` [Compound 524, N-(3-Methyl-benzo[b]thiophen-2-yl)-N—(C-(2,2-difluoro-benzo[1,3]dioxol-5-yl)-methyl)-4-carboxy-benzenesulfonamide], the inhibition at 0.2 µM (canine TRPM8; [2]) was 102% and the inhibition in vivo at 30 mg/kg (Male Sprague Dawley rats; [5]) was 46%.
Compound `CCCCNS(=O)(=O)N(CCCC)c1cc2ccccc2s1` [Compound 850, N-Benzo[b]thiophen-2-yl-N,N′-bis-butyl-sulfamide] has an inhibition at 0.2 µM (canine TRPM8; [6]) of 28%.
Work on `O=C(Nc1ccc(S(=O)(=O)N(CCC2CC2)c2sc3ccccc3c2Cl)cc1)C(F)(F)F` [Cpd 694, N-(3-Chloro-benzo[b]thiophen-2-yl)-N-(2-cyclopropyl-ethyl)-4-trifluoroacetamido-benzenesulfonamide] yielded an inhibition at 0.2 µM (canine TRPM8; [2]) of 42%.
In the case of `O=S(=O)(c1ccccc1)N(CCCF)c1sc2ccccc2c1CO` [Cpd 820], the “% Inh @ 0.2 (μM)” value (canine TRPM8; [6]) is reported as 102% and the IC50 (canine TRPM8; [7]) is reported as 28 nM.
For “N-(3,4-Difluoro-benzyl)-N-thieno[3,2-b]pyridin-2-yl-benzenesulfonamide [Compound 146]”, the IC50 (canine TRPM8; [1]) was 48 nM and the “% Inh @ 0.5 (μM)” value (canine TRPM8; [8]) was 97%.
For “N-(3-Bromo-thieno[3,2-b]pyridin-2-yl)-N-(3,4-difluoro-benzyl)-benzenesulfonamide and N-(3-chloro-thieno[3,2-b]pyridin-2-yl)-N-(3,4-difluoro-benzyl)-benzenesulfonamide [Compound 145]”, the IC50 (canine TRPM8; [1]) was 14.1 nM and the “% Inh @ 0.5 (μM)” value (canine TRPM8; [8]) was 100%.
For “N-(3-Chloro-benzo[b]thiophen-2-yl)-N-(4,4,4-trifluoro-butyl)-4-(5-oxo-4,5-dihydro-[1,2,4]oxadiazol-3-yl)-benzenesulfonamide [Compound 515]”, the “% Inh @ 0.2 (μM)” value (canine TRPM8; [2]) was 49%.
“N-(3-Cyclopentyl-benzo[b]thiophen-2-yl)-N-(4-fluoro-3-trifluoromethyl-benzyl)-4-carbomethoxy-benzenesulfonamide [Compound 501]” was tested, and the “% Inh @ 0.2 (μM)” value (canine TRPM8; [2]) was 31%.
For “N-(3-Methyl-benzo[b]thiophen-2-yl)-N-(4-fluoro-3-trifluoromethyl-benzyl)-4-pyrazol-1-yl-benzenesulfonamide [Compound 332]”, the IC50 (canine TRPM8; [1]) was 7 nM and the “% Inh @ 0.2 (μM)” value (canine TRPM8; [2]) was 100%.
In the case of “N-(3-Methyl-benzo[b]thiophen-2-yl)-N-(4-fluoro-3-trifluoromethyl-benzyl)-4-thiomethyl-pyridin-3-yl-sulfonamide [Compound 378]”, the IC50 (canine TRPM8; [1]) is reported as 97 nM and the “% Inh @ 0.2 (μM)” value (canine TRPM8; [2]) is reported as 85%.
“N-(3-Methyl-benzo[b]thiophen-2-yl)-N-(5,5,5-trifluoro-pentyl)-4-(5-oxo-4,5-dihydro-[1,2,4]oxadiazol-3-yl)-pyrid-3-ylsulfonamide [Compound 809]” was tested, and the “% Inh @ 0.2 (μM)” value (canine TRPM8; [6]) was 103% and the IC50 (canine TRPM8; [7]) was 6.9 nM.
For “N-(3-Methyl-benzo[b]thiophen-2-yl)-N-(5,5,5-trifluoro-pentyl)-4-thiomorpholin-4-yl-benzenesulfonamide [Compound 749]”, the “% Inh @ 0.2 (μM)” value (canine TRPM8; [2]) was 64%.
For “N-(3-Methyl-benzo[b]thiophen-2-yl)-N-(cyclopropyl-ethyl)-4-morpholino-3-pyridyl-sulfonamide [Compound 798]”, the “% Inh @ 0.2 (μM)” value (canine TRPM8; [6]) was 102% and the IC50 (canine TRPM8; [7]) was 35.9 nM.
With “N-(Benzo[b]thiophen-2-yl)-N-(3,3,3-trifluoro-propyl)-4-(5-oxo-4,5-dihydro-[1,2,4]oxadiazol-3-yl)-benzenesulfonamide [Compound 597]” the “% Inh @ 0.2 (μM)” value (canine TRPM8; [2]) was 25%.

From patent US9434711B2 (Janssen Pharmaceutica, NV, priority 2007, dated 2016)
